Data published in patent EP4617271A1, “PROTEOLYTIC CHIMERAS FOR THE TREATMENT OF A CANCER RELATED TO CERT” (Consejo Superior De Investigaciones Científicas - CSIC, priority 2024, dated 2025).

Legend:
[1] = target: T1, CERT (Homo sapiens, UniProt Q9Y5P4); assay: Degradation of CERT in cultured human breast cancer cells (SDS-PAGE and immunoblot); format: cell-based; conditions: for degradation of CERT / levels of CERT in cells: 24 h; for degradation of CERT: immunoblot vs DMSO
T1 construct: endogenous in cells; host or cells: MDA-MB-231, MDA-MB-453 (WT and lapatinib-resistant), BT-474 (WT and lapatinib-resistant)
T1 sequence (Q9Y5P4 1-624): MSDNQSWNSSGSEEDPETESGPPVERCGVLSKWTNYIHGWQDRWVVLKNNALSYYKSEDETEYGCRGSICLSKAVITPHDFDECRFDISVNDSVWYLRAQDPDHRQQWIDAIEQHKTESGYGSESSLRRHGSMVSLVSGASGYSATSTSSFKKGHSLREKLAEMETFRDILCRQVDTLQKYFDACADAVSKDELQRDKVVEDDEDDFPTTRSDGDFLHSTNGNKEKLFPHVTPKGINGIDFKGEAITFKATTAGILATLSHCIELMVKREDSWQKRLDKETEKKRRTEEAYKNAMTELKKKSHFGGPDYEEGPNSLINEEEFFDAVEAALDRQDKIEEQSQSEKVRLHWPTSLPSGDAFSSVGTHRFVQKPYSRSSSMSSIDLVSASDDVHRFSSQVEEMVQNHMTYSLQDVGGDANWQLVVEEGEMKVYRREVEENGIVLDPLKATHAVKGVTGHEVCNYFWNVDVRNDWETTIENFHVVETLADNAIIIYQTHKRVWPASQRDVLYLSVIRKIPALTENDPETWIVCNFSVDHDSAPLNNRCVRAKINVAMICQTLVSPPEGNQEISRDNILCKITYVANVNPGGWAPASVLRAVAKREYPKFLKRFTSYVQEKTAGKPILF
Protocol: (§1) MDA-MB-231 cells were grown in DMEM media (Sigma) supplemented with 10% fetal bovine serum (FBS) (Sigma), 2 mM L-glutamine (Thermo Fisher) and 100 U/mL penicillin/ 100 ug/mL streptomycin (Thermo Fisher). MDA-MB-453 cells were grown in DMEM/F12 media (Gibco) supplemented with 10% fetal bovine serum (FBS) (Sigma), 2 mM L-glutamine (Thermo Fisher), 2.5 ug/mL amphotericin B and 100 U/mL penicillin/ 100 ug/mL streptomycin (Thermo Fisher). BT-474 cells were grown in DMEM/F12 media (Gibco) supplemented with 10% fetal bovine serum (FBS) (Sigma), 2 mM L-glutamine (Thermo Fisher), 10 ug/mL insulin, 2.5 ug/mL amphotericin B and 100 U/mL penicillin/ 100 ug/mL streptomycin (Thermo Fisher).
Then, medium was removed and cells were washed with PBS, trypsinized and the pellets were disrupted by probe sonication in a 0.25 M solution of Saccharose. An aliquot was used for protein quantification and the same amount of protein per treatment was treated with laemli buffer (95 °C/5 min). The protein extracts were analyzed by SDS-PAGE electrophoresis followed by immunoblot using the following antibodies: CERT1, Abcam Ab72536; USP14, Cell signaling CS-11931; Actin, Abcam Ab5694.
Chimeras were tested in different types of breast cancer cell lines: • MDA-MB-231, lacking the estrogen receptor (ER), progesterone receptor (PR) and human epidermal growth factor receptor-2 (HER2).

[2] = tested on: MDA-MB-453/WT cells; assay: Cell viability (MTT), sensitization to lapatinib, MDA-MB-453/WT; format: cell-based, human; conditions: 24 h; for sensitization to Lapatinib treatments: Protac 10 µM, lapatinib 3-50 µM, shift of dose response curve vs vehicle; for change in viability: lapatinib 10 µM in the presence of Protac 10 µM; for CC50 vehicle /CC50 Protac ratio: lapatinib CC50 without vs with Protac 10 µM
Protocol: as §1
(§2) For cell proliferation assays, cells were plated at a density of 10,000 cells/well in a 96-well plate. […] MTT reagent was added to cell culture media. After 3 h incubation, culture medium was replaced by DMSO. MTT formazan crystals were solubilized in DMSO using a plate agitator for 30 min prior to reading absorbance at 570 nm with a SYNERGY H1 microplate reader (BioTek

[3] = tested on: MDA-MB-453/Lap cells; assay: Cell viability (MTT), sensitization to lapatinib, MDA-MB-453/Lap; format: cell-based, human; conditions: 24 h; for sensitization to Lapatinib treatments: Protac 10 µM, lapatinib 3-50 µM, shift of dose response curve vs vehicle; for change in viability: lapatinib 10 µM in the presence of Protac 10 µM; for CC50 vehicle /CC50 Protac ratio: lapatinib CC50 without vs with Protac 10 µM
Protocol: as §1, §2

[4] = tested on: BT-474/WT cells; assay: Cell viability (MTT), sensitization to lapatinib, BT-474/WT; format: cell-based, human; conditions: 24 h; for sensitization to Lapatinib treatments: Protac 20 µM, lapatinib 0.63-30 µM; for CC50 vehicle /CC50 Protac ratio: lapatinib CC50 without vs with Protac 20 µM
Protocol: as §1, §2

[5] = tested on: BT-474/Lap cells; assay: Cell viability (MTT), sensitization to lapatinib, BT-474/Lap; format: cell-based, human; conditions: 24 h; for sensitization to Lapatinib treatments: Protac 20 µM, lapatinib 0.63-30 µM, shift of dose response curve vs vehicle; for CC50 vehicle /CC50 Protac ratio: lapatinib CC50 without vs with Protac 20 µM
Protocol: as §1, §2

[6] = BT-474 (WT) cells, 10 µM, 20 µM per Figure 1 legend
[7] = BT-474/Lap (lapatinib resistant) cells, 1, 5, 10, 20, 30 and 40 µM, immunoblot vs DMSO (Figure 6)
[8] = MDA-MB-453/Lap (lapatinib resistant) cells, 1, 5, 10, 20, 30 and 40 µM, immunoblot vs DMSO (Figure 4)
[9] = MDA-MB-231 cells, 10 µM, time course 2, 4, 6, 8, 16 and 24 h

Q: How did the “degradation of CERT” value [1, 6] turn out when `Cc1cc(C(=O)N2CCC(COC(=O)NCCOCCn3cc(CCCCCCCCC(=O)N[C@@H](CO)C[C@H](O)c4ccccc4)nn3)CC2)c(C)n1-c1ccc(F)cc1` [RBM3-413, (1-(1-(4-Fluorophenyl)-2,5-dimethyl-1H-pyrrole-3-carbonyl)piperidin-4-yl)methyl (2-(2-(4-(9-(((2R,4S)-1,4-dihydroxy-4-phenylbutan-2-yl)amino)-9-oxononyl)-1H-1,2,3-triazol-1-yl)ethoxy)ethyl)carbamate] was run?
A: induced the degradation of CERT

Q: What about the “levels of CERT in cells” value [1, 7] of the same molecule?
A: treatments have reduced the levels of CERT in cells

Q: What about the “degradation of CERT” value ([1]; MDA-MB-231 cells, 10 µM) of the same molecule?
A: induced the degradation of CERT

Q: What about the “degradation of CERT” value ([1]; MDA-MB-453 (WT) cells, 10 µM) of the same molecule?
A: induced the degradation of CERT

Q: What about the “levels of CERT in cells” value [1, 8] of the same molecule?
A: treatments have reduced the levels of CERT in cells

Q: And the “sensitization to Lapatinib treatments” value [2]?
A: Sensitization was also observed, yet mildly

Q: And the change in viability [2]?
A: -38%

Q: What about the “CC50 vehicle /CC50 Protac ratio” value [2] of the same molecule?
A: 1.98

Q: And the “sensitization to Lapatinib treatments” value [3]?
A: potent sensitization

Q: What about the change in viability [3] of the same molecule?
A: -38%

Q: And the “CC50 vehicle /CC50 Protac ratio” value [3]?
A: 2.33

Q: And the “sensitization to Lapatinib treatments” value [4]?
A: sensitized cells to lapatinib treatments

Q: And the “CC50 vehicle /CC50 Protac ratio” value [4]?
A: 3.84

Q: And the “sensitization to Lapatinib treatments” value [5]?
A: potent sensitization

Q: And the “CC50 vehicle /CC50 Protac ratio” value [5]?
A: 5.56

Q: How did the “degradation of CERT” value [1, 6] turn out when `Cc1cc(C(=O)N2CCC(Cn3cc(CCCCCCCCC(=O)N[C@@H](CO)C[C@H](O)c4ccccc4)nn3)CC2)c(C)n1-c1ccc(F)cc1` [RBM3-395, N-((2R,4S)-1,4-Dihydroxy-4-phenylbutan-2-yl)-9-(1-((1-(1-(4-fluorophenyl)-2,5-dimethyl-1H-pyrrole-3-carbonyl)piperidin-4-yl)methyl)-1H-1,2,3-triazol-4-yl)nonanamide] was run?
A: induced the degradation of CERT

Q: What about the “levels of CERT in cells” value [1, 7] of the same molecule?
A: treatments have reduced the levels of CERT in cells

Q: And the “degradation of CERT” value ([1]; MDA-MB-231 cells, 10 µM)?
A: induced the degradation of CERT

Q: What about the “degradation of CERT” value ([1]; MDA-MB-453 (WT) cells, 10 µM) of the same molecule?
A: induced the degradation of CERT

Q: What about the “levels of CERT in cells” value [1, 8] of the same molecule?
A: treatments have reduced the levels of CERT in cells

Q: And the “sensitization to Lapatinib treatments” value [2]?
A: Sensitization was also observed, yet mildly

Q: What about the change in viability [2] of the same molecule?
A: -38%

Q: And the “CC50 vehicle /CC50 Protac ratio” value [2]?
A: 2.27

Q: And the “sensitization to Lapatinib treatments” value [3]?
A: potent sensitization

Q: What about the change in viability [3] of the same molecule?
A: -38%

Q: What about the “CC50 vehicle /CC50 Protac ratio” value [3] of the same molecule?
A: 2.05

Q: What about the “sensitization to Lapatinib treatments” value [4] of the same molecule?
A: sensitized cells to lapatinib treatments

Q: What about the “CC50 vehicle /CC50 Protac ratio” value [4] of the same molecule?
A: 6.22

Q: What about the “sensitization to Lapatinib treatments” value [5] of the same molecule?
A: potent sensitization

Q: And the “CC50 vehicle /CC50 Protac ratio” value [5]?
A: 5.23

Q: What does the source list for `Cc1cc(C(=O)N2CCC(COC(=O)NCCOCCOCCOCCOCCOCCn3cc(CCCCCCCCC(=O)N[C@@H](CO)C[C@H](O)c4ccccc4)nn3)CC2)c(C)n1-c1ccc(F)cc1` [RBM3-419, (1-(1-(4-Fluorophenyl)-2,5-dimethyl-1H-pyrrole-3-carbonyl)piperidin-4-yl)methyl (17-(4-(9-(((2R,4S)-1,4-dihydroxy-4-phenylbutan-2-yl)amino)-9-oxononyl)-1H-1,2,3-triazol-1-yl)-3,6,9,12,15-pentaoxaheptadecyl)carbamate]?
A: degradation of CERT [1, 6]: induced the degradation of CERT; levels of CERT in cells [1, 7]: treatments have reduced the levels of CERT in cells; degradation of CERT ([1]; MDA-MB-231 cells, 10 µM): induced the degradation of CERT; degradation of CERT ([1]; MDA-MB-453 (WT) cells, 10 µM): induced the degradation of CERT; levels of CERT in cells [1, 8]: treatments have reduced the levels of CERT in cells

Q: For `Cc1cc(C(=O)N2CCC(COC(=O)NCCOCCOCCn3cc(CCCCCCCCC(=O)N[C@@H](CO)C[C@H](O)c4ccccc4)nn3)CC2)c(C)n1-c1ccc(F)cc1` [RBM3-386, (1-(1-(4-Fluorophenyl)-2,5-dimethyl-1H-pyrrole-3-carbonyl)piperidin-4-yl)methyl (2-(2-(2-(4-(9-(((2R,4S)-1,4-dihydroxy-4-phenylbutan-2-yl)amino)-9-oxononyl)-1H-1,2,3-triazol-1-yl)ethoxy)ethoxy)ethyl) carbamate], which “degradation of CERT” value [1, 6] is on record?
A: induced the degradation of CERT

Q: What about the “levels of CERT in cells” value [1, 7] of the same molecule?
A: treatments have reduced the levels of CERT in cells

Q: What about the “degradation of CERT” value ([1]; MDA-MB-231 cells, 10 µM) of the same molecule?
A: induced the degradation of CERT

Q: What about the “degradation of CERT” value ([1]; MDA-MB-453 (WT) cells, 10 µM) of the same molecule?
A: induced the degradation of CERT

Q: What about the “levels of CERT in cells” value [1, 8] of the same molecule?
A: treatments have reduced the levels of CERT in cells

Q: With `Cc1cc(C(=O)N2CCC(COC(=O)NCCOCCOCCOCCn3cc(CCCCCCCCC(=O)N[C@@H](CO)C[C@H](O)c4ccccc4)nn3)CC2)c(C)n1-c1ccc(F)cc1` [RBM3-368] as the molecule, how does the “degradation of CERT” value [1, 6] read?
A: induced the degradation of CERT

Q: What about the “levels of CERT in cells” value [1, 7] of the same molecule?
A: treatments have reduced the levels of CERT in cells

Q: And the “degradation of CERT” value ([1]; MDA-MB-231 cells, 10 µM)?
A: induced the degradation of CERT

Q: And the “time of CERT degradation effect” value [1, 9]?
A: 16 to 24 h

Q: What about the “time of maximum degradation” value [1, 9] of the same molecule?
A: 24 h

Q: What about the “degradation of CERT” value ([1]; MDA-MB-453 (WT) cells, 10 µM) of the same molecule?
A: induced the degradation of CERT

Q: And the “levels of CERT in cells” value [1, 8]?
A: treatments have reduced the levels of CERT in cells
